In publication PMC7031696 (Cell chemical biology, 2019):
Read-outs that look alike come from different tables or passages of the source.

Columns and labels:
[1] = system: asynchronous 3D7-A10 parasite cultures; experiment: Standard 72-h exposure asexual blood stage susceptibility assay (IC50^72h); format: cell-based, Plasmodium falciparum; conditions: Plasmodium falciparum, 3D7, 72 h, read-out: Overall (72hr assay) Mean IC50 (IC50^72h)
[2] = system: 3D7-MR4 trophozoite parasite-infected RBCs; experiment: Metabolomic profiling (hydrophilic metabolite changes, UHPLC-MS); format: cell-based, Plasmodium falciparum
[3] = system: Plasmodium falciparum 3D7-A10 parasites; experiment: Stage specificity assay (8-h exposure of synchronized stages, IC50^8h); format: cell-based; conditions: for IC50: Plasmodium falciparum

SMILES: CN(C)c1ccc2nc3ccc(=[N+](C)C)cc-3sc2c1 [Methylene blue, reference compound]
- IC50 [1]: 1.8 nM
- changes within the set of metabolites detected (low fold change group) ([2]; 10 × IC50^72h, 2.5 hr, trophozoites): did not induce major changes
- Log2(fold changes) 3-phosphoglycerate ([2]; metabolite 3-phosphoglycerate, log2 fold change): 0.1717
- Log2(fold changes) 4-Pyridoxic acid ([2]; metabolite 4-Pyridoxic acid, log2 fold change): 0.0000
- Log2(fold changes) 4-aminobutyrate ([2]; metabolite 4-aminobutyrate, log2 fold change): -0.1073
- Log2(fold changes) 4-phosphopantetheine ([2]; metabolite 4-phosphopantetheine, log2 fold change): 0.0000
- Log2(fold changes) 4-phosphopantothenate ([2]; metabolite 4-phosphopantothenate, log2 fold change): -0.3089
- Log2(fold changes) 5-aminopentanoic acid ([2]; metabolite 5-aminopentanoic acid, log2 fold change): 0.0000
- Log2(fold changes) 5-methyl-THF ([2]; metabolite 5-methyl-THF, log2 fold change): 0.0000
- Log2(fold changes) 5-phosphoribosyl-1-pyrophosphate ([2]; metabolite 5-phosphoribosyl-1-pyrophosphate, log2 fold change): 0.7627
- Log2(fold changes) 6-phospho-D-gluconate ([2]; metabolite 6-phospho-D-gluconate, log2 fold change): 0.0184
- Log2(fold change) HVDD ([2]; metabolite HVDD): 0.0000
- Log2(fold change) Hydroxyisocaproic acid ([2]; metabolite Hydroxyisocaproic acid): 0.0000
- Log2(fold change) IDP ([2]; metabolite IDP): 0.2471
- Log2(fold change) IMP ([2]; metabolite IMP): -0.1535
- Log2(fold change) Inositol ([2]; metabolite Inositol): 0.0000
- Log2(fold change) Isopentyl-PP ([2]; metabolite Isopentyl-PP): 0.0000
- Log2(fold change) L-arginino-succinate ([2]; metabolite L-arginino-succinate): 0.0000
- Log2(fold change) LD ([2]; metabolite LD): -0.0546
- Log2(fold change) Myristoyl/tetradecanoyl-CoA ([2]; metabolite Myristoyl/tetradecanoyl-CoA): 0.0000
- Log2(fold change) N-Acetyl-L-alanine ([2]; metabolite N-Acetyl-L-alanine): 0.0660
- Log2(fold change) N-acetyl-L-ornithine ([2]; metabolite N-acetyl-L-ornithine): -0.0972
- Log2(fold change) N-acetyl-glucosamine-1/6-phosphate ([2]; metabolite N-acetyl-glucosamine-1/6-phosphate): -0.3026
- Log2(fold change) N-acetyl-glutamate ([2]; metabolite N-acetyl-glutamate): -0.1200
- Log2(fold change) N-acetyl-glutamine ([2]; metabolite N-acetyl-glutamine): 0.0000
- Log2(fold change) N-carbamoyl-L-aspartate ([2]; metabolite N-carbamoyl-L-aspartate): -0.4399
- Log2(fold change) NAD+ ([2]; metabolite NAD+): -0.1775
- Log2(fold change) NADH ([2]; metabolite NADH): 0.6869
- Log2(fold change) NADP+ ([2]; metabolite NADP+): 0.0190
- Log2(fold change) NADPH ([2]; metabolite NADPH): 0.5257
- Log2(fold change) O-acetyl-L-serine ([2]; metabolite O-acetyl-L-serine): 0.0000
- Log2(fold change) Octoluse 8/1P ([2]; metabolite Octoluse 8/1P): -0.1481
- Log2(fold change) Octoluse Bisphosphate ([2]; metabolite Octoluse Bisphosphate): -0.0868
- Log2(fold change) PD ([2]; metabolite PD): -0.1726
- Log2(fold change) PE ([2]; metabolite PE): -0.0321
- Log2(fold change) PEE ([2]; metabolite PEE): 0.0787
- Log2(fold change) PEEK ([2]; metabolite PEEK): 0.2857
- Log2(fold change) PVNF ([2]; metabolite PVNF): 0.3021
- Log2(fold change) Pyroglutamic acid ([2]; metabolite Pyroglutamic acid): -0.1430
- Log2(fold change) Pyrophosphate ([2]; metabolite Pyrophosphate): 0.0000
- Log2(fold change) Ribose-5-phosphate ([2]; metabolite Ribose-5-phosphate): 0.0744
- Log2(fold change) S-adenosyl-L-homocysteine ([2]; metabolite S-adenosyl-L-homocysteine): -0.2409
- Log2(fold change) S-adenosyl-L-methioninamine ([2]; metabolite S-adenosyl-L-methioninamine): 0.0000
- Log2(fold change) S-adenosyl-L-methionine ([2]; metabolite S-adenosyl-L-methionine): 0.0000
- Log2(fold change) S-methyl-5'-thioadenosine ([2]; metabolite S-methyl-5'-thioadenosine): -0.0807
- Log2(fold change) SD ([2]; metabolite SD): -0.0525
- Log2(fold change) SDL ([2]; metabolite SDL): 0.0000
- Log2(fold change) SID ([2]; metabolite SID): 0.0000
- Log2(fold change) Sedoheptulose bisphosphate ([2]; metabolite Sedoheptulose bisphosphate): 0.0024
- Log2(fold change) Thiamine pyrophosphate ([2]; metabolite Thiamine pyrophosphate): -0.2290
- Log2(fold changes) UDP-D-glucose ([2]; metabolite UDP-D-glucose, log2 fold change): -0.0680
- Log2(fold changes) UDP-D-glucuronate ([2]; metabolite UDP-D-glucuronate, log2 fold change): 0.0789
- Log2(fold changes) UDP-N-acetyl-glucosamine ([2]; metabolite UDP-N-acetyl-glucosamine, log2 fold change): -0.1825
- Log2(fold changes) UDP ([2]; metabolite UDP, log2 fold change): -0.3881
- Log2(fold changes) UMP ([2]; metabolite UMP, log2 fold change): -0.2463
- Log2(fold changes) UTP ([2]; metabolite UTP, log2 fold change): -0.0408
- Log2(fold change) hydroxyphenylpyruvate ([2]; metabolite hydroxyphenylpyruvate): 0.0000
- Log2(fold change) hydroxyproline/Aminolevulinate ([2]; metabolite hydroxyproline/Aminolevulinate): 0.0000
- Log2(fold change) hypoxanthine ([2]; metabolite hypoxanthine): 0.0000
- Log2(fold change) indole ([2]; metabolite indole): 0.0000
- Log2(fold change) inosine ([2]; metabolite inosine): -0.4017
- Log2(fold change) isoleucine ([2]; metabolite isoleucine): 0.7210
- Log2(fold change) lactate ([2]; metabolite lactate): -0.1398
- Log2(fold change) leucine ([2]; metabolite leucine): 0.2614
- Log2(fold change) lysine ([2]; metabolite lysine): -0.0829
- Log2(fold change) malate ([2]; metabolite malate): -0.0400
- Log2(fold change) maleic acid ([2]; metabolite maleic acid): -0.0220
- Log2(fold change) methionine ([2]; metabolite methionine): 0.1258
- Log2(fold change) myo-inositol ([2]; metabolite myo-inositol): -0.2003
- Log2(fold change) nicotinamide mononucleotide ([2]; metabolite nicotinamide mononucleotide): -0.1519
- Log2(fold change) nicotinate ([2]; metabolite nicotinate): -0.3017
- Log2(fold change) ornithine ([2]; metabolite ornithine): 0.0000
- Log2(fold change) orotate ([2]; metabolite orotate): -0.5750
- Log2(fold change) orotidine-5'-phosphate ([2]; metabolite orotidine-5'-phosphate): -0.6269
- Log2(fold change) oxaloacetate ([2]; metabolite oxaloacetate): 0.0000
- Log2(fold change) p-aminobenzoate ([2]; metabolite p-aminobenzoate): 0.0000
- Log2(fold change) p-hydroxybenzoate ([2]; metabolite p-hydroxybenzoate): 0.0000
- Log2(fold change) pantothenate ([2]; metabolite pantothenate): -1.6576
- Log2(fold change) phenylalanine ([2]; metabolite phenylalanine): 0.0379
- Log2(fold change) phenylpyruvate ([2]; metabolite phenylpyruvate): 0.0000
- Log2(fold change) phosphoenolpyruvate ([2]; metabolite phosphoenolpyruvate): 0.1672
- Log2(fold change) prephenate ([2]; metabolite prephenate): 0.0000
- Log2(fold change) proline ([2]; metabolite proline): 0.1190
- Log2(fold change) pyridoxine ([2]; metabolite pyridoxine): -0.1182
- Log2(fold change) pyruvate ([2]; metabolite pyruvate): -0.0447
- Log2(fold change) riboflavin ([2]; metabolite riboflavin): -0.0900
- Log2(fold change) ribose ([2]; metabolite ribose): 0.0000
- Log2(fold change) ribose-phosphate ([2]; metabolite ribose-phosphate): -0.1993
- Log2(fold change) ribulose-5-phosphate ([2]; metabolite ribulose-5-phosphate): -0.1201
- Log2(fold change) serine ([2]; metabolite serine): -0.0692
- Log2(fold change) sn-glycerol-3-phosphate ([2]; metabolite sn-glycerol-3-phosphate): 0.0549
- Log2(fold change) succinate/Methylmalonic acid ([2]; metabolite succinate/Methylmalonic acid): 0.4289
- Log2(fold change) succinyl-CoA/methylmalonyl-CoA ([2]; metabolite succinyl-CoA/methylmalonyl-CoA): 0.0000
- Log2(fold change) taurine ([2]; metabolite taurine): 0.1250
- Log2(fold change) thiamine ([2]; metabolite thiamine): -0.2233
- Log2(fold change) threonine/homoserine ([2]; metabolite threonine/homoserine): -0.1021
- Log2(fold change) thymidine ([2]; metabolite thymidine): 0.0000
- Log2(fold changes) thymine ([2]; metabolite thymine, log2 fold change): 0.0000
- Log2(fold changes) trehalose-6-Phosphate ([2]; metabolite trehalose-6-Phosphate, log2 fold change): 0.0000
- Log2(fold changes) tryptophan ([2]; metabolite tryptophan, log2 fold change): 0.0214
- Log2(fold changes) tyrosine ([2]; metabolite tyrosine, log2 fold change): 0.0876
- Log2(fold changes) uridine ([2]; metabolite uridine, log2 fold change): -0.4227
- Ratio lowest IC50 8hr/IC50 72hr ([3]; 3D7-A10): 1.8
- IC50 ([3]; 3D7, read-out: Early rings Mean IC50 (IC50^8h), 8-h exposure 0–8 hr, 3D7-A10, survival at 60 h): 3.2 nM
- IC50 ([3]; 3D7, read-out: Early trophozoites Mean IC50 (IC50^8h), 8-h exposure 16–24 hr, 3D7-A10, survival at 60 h): 5.9 nM
- IC50 ([3]; 3D7, read-out: Late rings Mean IC50 (IC50^8h), 8-h exposure 8–16 hr, 3D7-A10, survival at 60 h): 13.3 nM
- IC50 ([3]; 3D7, read-out: Late trophozoites Mean IC50 (IC50^8h), 8-h exposure 24–32 hr, 3D7-A10, survival at 60 h): 8.3 nM
- IC50 ([3]; 3D7, read-out: Schizonts Mean IC50 (IC50^8h), 8-h exposure 32–40 hr, 3D7-A10, survival at 60 h): 64.8 nM
- Stage of peak activity (Figure 6) ([3]; period when the parasite was most susceptible (lowest IC50^8h)): rings and trophozoites
